Our source for the MIC values is patent US5262417A, “Antibacterial quinolone compounds” (The Upjohn Company, priority 1991, dated 1993).

Common to all, as to assay: Minimum inhibitory concentration (MIC) by agar dilution
Holding throughout (type): cell-based

For one test, the system named is Enterobacter cloacae. Particulars: 20 h, read-out: MINIMUM INHIBITORY CONCENTRATION
Here is the method: (§1) Briefly, MIC values are determined in unsupplemented Mueller Hinton Agar (MHA). The compounds tested are diluted serially into molten MHA at 47° C. The agar is poured into petri dishes and allowed to harden. The various bacteria used for testing are grown overnight on MHA at 35° C. and transferred to Trypticase soy broth (TSB) until a turbidity of 0.5 McFarland standard is obtained. The bacteria are diluted one to 20 in TSB and inoculated on the plates (1 μl using a Steers replicator).
as §1, with “Compounds of this invention can also be tested for in vitro antimicrobial activity using standard testing procedures such as the determination of minimum inhibitory concentration (MIC) by agar dilution as described in "Methods for Dilution Antimicrobial Susceptibility Tests for Bacteria That Grow Aerobically" (MFT) published Jan. […] Briefly,” for “Briefly,”, “(1μl” for “(1 μl”

Another test has as its system Streptococcus faecalis. To be noted: Enterococcus faecalis, 20 h, read-out: MINIMUM INHIBITORY CONCENTRATION
Here is the method: as §1, with “The antibacterial activity of the compounds of Formula IC was determined by using standard testing procedures such as the determination of minimum inhibitory concentration (MIC) by agar dilution as described in "Methods for Dilution Antimicrobial Susceptibility Tests for Bacteria That Grow Aerobically" (MFT) published January 1983 by the National Committee for Clinical Laboratory Standards, 771 East Lancaster Avenue, Villanova, Pa. 19084, USA. Briefly,” for “Briefly,”
(§2) Compounds of this invention can also be tested for in vitro antimicrobial activity using standard testing procedures such as the determination of minimum inhibitory concentration (MIC) by agar dilution as described in "Methods for Dilution Antimicrobial Susceptibility Tests for Bacteria That Grow Aerobically" (MFT) published Jan. 1983 by the National Committee for Clinical Laboratory Standards, 771 East Lancaster Avenue, Villanova, Penna. 19084, USA. Briefly, MIC values are determined in unsupplemented Mueller Hinton Agar (MHA). The compounds tested are diluted serially into molten MHA at 47° C. The agar is poured into petri dishes and allowed to harden. The various bacteria used for testing are grown overnight on MHA at 35° C. and transferred to Trypticase soy broth (TSB) until a turbidity of 0.5 McFarland standard is obtained. The bacteria are diluted one to 20 in TSB and inoculated on the plates (1μl using a Steers replicator). […] The MIC test results of selected of Formula B compounds of this invention are found in Tables B2-B9.

The test system of a further test is Escherichia coli. To be noted: Escherichia coli, 20 h. The procedure: (§3) The antibacterial activity of the compounds of Formula IC was determined by using standard testing procedures such as the determination of minimum inhibitory concentration (MIC) by agar dilution as described in "Methods for Dilution Antimicrobial Susceptibility Tests for Bacteria That Grow Aerobically" (MFT) published January 1983 by the National Committee for Clinical Laboratory Standards, 771 East Lancaster Avenue, Villanova, Pa. 19084, USA. Briefly, MIC values are determined in unsupplemented Mueller Hinton Agar (MHA). The compounds tested are diluted serially into molten MHA at 47° C. The agar is poured into petri dishes and allowed to harden. The various bacteria used for testing are grown overnight on MHA at 35° C. and transferred to Trypticase soy broth (TSB) until a turbidity of 0.5 McFarland standard is obtained. The bacteria are diluted one to 20 in TSB and inoculated on the plates (1 μl using a Steers replicator).
as §2

In a further test the test system is Pseudomonas aeruginosa. To be noted: Pseudomonas aeruginosa, 20 h. The procedure: as §3, §2
The next test deals with Staphylococcus aureus. To be noted: Staphylococcus aureus, 20 h. Here is the method: as §3, §2
The next test relates to Klebsiella pneumoniae. Particulars: 20 h, read-out: MINIMUM INHIBITORY CONCENTRATION
Here is the method: as §3, §2

The subject of test [1] is Staphylococcus epidermidis. To be noted: 20 h, read-out: MINIMUM INHIBITORY CONCENTRATION
The procedure: as §3, §2

Another test relates to Streptococcus pneumoniae. Particulars: Streptococcus pneumoniae, 20 h, read-out: MINIMUM INHIBITORY CONCENTRATION, Cult No. 41, MHA. Here is the method:
as §3, §2

The subject of a further test is Serratia marcescens. Particulars: 20 h, read-out: MINIMUM INHIBITORY CONCENTRATION
The procedure: as §3, §2

The test system of test [2] is Acinetobacter calcoaceticus. Particulars: Acinetobacter calcoaceticus, 20 h, read-out: MINIMUM INHIBITORY CONCENTRATION, Cult No. 12170, MHA. Here is the method: as §3, §2
The next test has as its system Streptococcus pyogenes. Particulars: Streptococcus pyogenes, 20 h, read-out: MINIMUM INHIBITORY CONCENTRATION, Cult No. 152, MHA. Here is the method: as §3, §2
The subject of a further test is Citerobacter freundii. Particulars: 20 h, read-out: MINIMUM INHIBITORY CONCENTRATION
Here is the method: as §3, §2

The test system of a further test is Proteus penneri. Particulars: Proteus penneri, 20 h, read-out: MINIMUM INHIBITORY CONCENTRATION, Cult No. 9679, MHA. Here is the method: as §3, §2
Where [3] appears, read: read-out: MINIMUM INHIBITORY CONCENTRATION, Cult No. 6674, MHA.
Setting [4] is: read-out: MINIMUM INHIBITORY CONCENTRATION, Cult No. 9451, MHA.
[5] abbreviates: read-out: MINIMUM INHIBITORY CONCENTRATION, Cult No. 9855, MHA.
Setting [6] is: read-out: MINIMUM INHIBITORY CONCENTRATION, Cult No. 9952, MHA.
Setting [7] is: read-out: MINIMUM INHIBITORY CONCENTRATION, Cult No. 6676, MHA.
The mark [8] stands for this setting: read-out: MINIMUM INHIBITORY CONCENTRATION, Cult No. 9191, MHA.
Setting [9] is: read-out: MINIMUM INHIBITORY CONCENTRATION, Cult No. 12120, MHA.
The mark [10] stands for this setting: read-out: MINIMUM INHIBITORY CONCENTRATION, Cult No. 6685, MHA.
Where [11] appears, read: read-out: MINIMUM INHIBITORY CONCENTRATION, Cult No. 9213, MHA.
Where [12] appears, read: read-out: MINIMUM INHIBITORY CONCENTRATION, Cult No. 9218, MHA.
[13] abbreviates: read-out: MINIMUM INHIBITORY CONCENTRATION, Cult No. 9271, MHA.

Molecules are shown by their SMILES. Values after ≈ are worked out from the molar mass of the structure shown. Like-named read-outs stand apart in the source and are kept apart here.

In the case of `NC1CCN(c2c(F)cc3c(=O)c(C(=O)O)cn(C45CC(C4)C5)c3c2F)C1` (racemic) [No. 84, 7-(3-amino-1-pyrrolidinyl)-1-(bicyclo[1.1.1]pent-1-yl)-1,4-dihydro-6,8-difluoro-4-oxo-3-quinolinecarboxylic acid], the MIC is 0.06 µg/mL (≈ 0.16 µM) in the test on Enterobacter cloacae; 0.5 µg/mL (≈ 1.33 µM) in the test on Streptococcus faecalis; 0.03 µg/mL (≈ 0.0799 µM) in the test with Escherichia coli (setting [3]); 0.06 µg/mL (≈ 0.16 µM) in the test with Escherichia coli (setting [4]); 0.06 µg/mL (≈ 0.16 µM) in the test with Escherichia coli (setting [5]); 0.03 µg/mL (≈ 0.0799 µM) in the test on Escherichia coli (setting [6]). Besides, the MIC in the test on Pseudomonas aeruginosa (setting [7]) was 1 µg/mL (≈ 2.66 µM); in the test with Pseudomonas aeruginosa (setting [8]), 0.5 µg/mL (≈ 1.33 µM); in the test on Pseudomonas aeruginosa (setting [9]), 0.5 µg/mL (≈ 1.33 µM); in the test on Staphylococcus aureus (setting [10]), 0.06 µg/mL (≈ 0.16 µM); with Staphylococcus aureus (setting [11]), 0.125 µg/mL (≈ 0.333 µM); in the test on Staphylococcus aureus (setting [12]), 0.125 µg/mL (≈ 0.333 µM). The MIC with Staphylococcus aureus (setting [13]) was 0.125 µg/mL (≈ 0.333 µM); with Klebsiella pneumoniae, 0.06 µg/mL (≈ 0.16 µM); in [1] it was 0.125 µg/mL (≈ 0.333 µM); with Streptococcus pneumoniae, 0.5 µg/mL (≈ 1.33 µM); in the test on Serratia marcescens, 0.125 µg/mL (≈ 0.333 µM); in test [2] it was 0.125 µg/mL (≈ 0.333 µM). The MIC with Streptococcus pyogenes worked out at 0.25 µg/mL (≈ 0.666 µM); with Citerobacter freundii it was 0.36 µg/mL (≈ 0.959 µM); with Proteus penneri, 0.25 µg/mL (≈ 0.666 µM).

As for `O=C(O)c1cn(C23CC(C2)C3)c2nc(N3CCC(O)C3)c(F)cc2c1=O` (racemic) [No. 91, 7-(3-hydroxy-1-pyrrolidinyl)-1-(bicyclo[1.1.1]pent-1-yl)-1,4-dihydro-6-fluoro-4-oxo-1,8-naphthyridine-3-carboxylic acid], the MIC worked out at 0.25 µg/mL (≈ 0.696 µM) in the test on Enterobacter cloacae; 1 µg/mL (≈ 2.78 µM) in the test with Streptococcus faecalis; 0.125 µg/mL (≈ 0.348 µM) with Escherichia coli (setting [3]); 0.25 µg/mL (≈ 0.696 µM) in the test on Escherichia coli (setting [4]); 0.25 µg/mL (≈ 0.696 µM) in the test on Escherichia coli (setting [5]); 0.125 µg/mL (≈ 0.348 µM) in the test on Escherichia coli (setting [6]). Besides, the MIC in the test on Pseudomonas aeruginosa (setting [7]) was 4 µg/mL (≈ 11.1 µM); with Pseudomonas aeruginosa (setting [8]), 2 µg/mL (≈ 5.57 µM); with Pseudomonas aeruginosa (setting [9]), 2 µg/mL (≈ 5.57 µM); with Staphylococcus aureus (setting [10]), 0.06 µg/mL (≈ 0.167 µM); in the test on Staphylococcus aureus (setting [11]), 0.125 µg/mL (≈ 0.348 µM); with Staphylococcus aureus (setting [12]), 0.125 µg/mL (≈ 0.348 µM). Besides, the MIC in the test with Staphylococcus aureus (setting [13]) is 0.125 µg/mL (≈ 0.348 µM); in the test on Klebsiella pneumoniae, 0.5 µg/mL (≈ 1.39 µM); in test [1], 0.125 µg/mL (≈ 0.348 µM); in the test with Streptococcus pneumoniae it was 1 µg/mL (≈ 2.78 µM); in the test with Serratia marcescens, 1 µg/mL (≈ 2.78 µM); in test [2], 0.5 µg/mL (≈ 1.39 µM). The figures for the MIC with Streptococcus pyogenes, with Citerobacter freundii and with Proteus penneri were 2 µg/mL (≈ 5.57 µM), 0.25 µg/mL (≈ 0.696 µM) and 1 µg/mL (≈ 2.78 µM), respectively.
